Source: US20080234336A1, “Synergistic Imazalil Combinations” (priority 2005, published 2008)

Assays:
Type in all cases: cell-based
[1] = test system: Geotrichum candidum (Gca); assay: Poison plate assay (Experiment 2), fungal growth and Limpel synergy
Experimental: (§1) Name of the primary compound: imazalil (I) Formulations: (% is in w/v)
• Stock solution: 2000 ppm (w/w) • Solvent for dilutions: demineralised water • Fungal species: post harvest and seed pathogens: Geotrichum candidum (Gca) and Penicillium digitatum (Pdi) Calculated amounts of dilutions were poured into multi-well plates. Culture medium was added aseptically and uniform distribution was obtained by shaking. […] The expected activity E of a combination of active ingredients was calculated by using Limpel's formula (Richter, D. L; Pesticide Science 1987, 19: 309-315): • E=A+B−(A*B)/100 wherein A and B express the activities obtained for each of the active ingredients when applied alone. A synergistic effect is acknowledged if the measured activity M exceeds the calculated (expected) activity E (synergy indicated by figures in bold).

[2] = test system: Penicillium digitatum (Pdi); assay: as above; settings: Table 6, Pdi; imazalil 0.02 ppm, combinations 0.02 + 0.02 ppm; conc 0 for carpropamid and fosetyl-Al alone
Experimental: as §1
• Stock solution: 2000 ppm (w/w) • Solvent for dilutions: demineralised water • Fungal species: post harvest and seed pathogens: Geotrichum candidum (Gca) and Penicillium digitatum (Pdi) Calculated amounts of dilutions were poured into multi-well plates. Culture medium was added aseptically and uniform distribution was obtained by shaking. The plates were inoculated with the test fungi and incubated during a period long enough to allow complete outgrowth of controls. • Test concentrations: noted in ppm versus growth medium (w/v): see tables • Replicates: 4 • Culture medium: PDA (Potato Dextrose Agar) • Culture conditions: 22° C. and 60% relative humidity • Inoculation: with a small piece of agar from the margin of an actively growing culture or a suspension of spores, mycelium or culture • Evaluation date: at complete outgrowth of control • Synergy calculation: Diameter of fungal growth (in mm) was measured, mean radial growth (X) and measured activity (M) were calculated. The expected activity E of a combination of active ingredients was calculated by using Limpel's formula (Richter, D. L; Pesticide Science 1987, 19: 309-315): • E=A+B−(A*B)/100 wherein A and B express the activities obtained for each of the active ingredients when applied alone. A synergistic effect is acknowledged if the measured activity M exceeds the calculated (expected) activity E (synergy indicated by figures in bold).

[3] = test system: Rhizoctonia solani; assay: Poison plate assay (Experiment 1), MIC and Synergy Index; settings: PDA, 27° C., evaluation after two days, ppm total active ingredient; for MIC: 48 h, read-out: MIC-values (minimum inhibitory concentration) in ppm
Text: (§2) Name of the primary compound: • imazalil (I) Name of the combination partners: • boscalid (II-a) • cyproconazole (II-b) • pyraclostrobin (II-c) • triflumizole (II-d) Stock solution: 1000 ppm in DMSO
(§3) • Concentrations of total active ingredient in the combinations: a series of concentrations increasing with steps of 1/3: 0.21-0.28-0.38-0.50-0.67-0.89-1.19-1.58-2.11-2.81-3.75-5.00-6.67-8.90-11.87-15.82-21.09-28.13-37.50-50.00 ppm • Culture medium: Potato Dextrose Agiar (PDA): 4 g potato infusion, 20 g bacto dextrose and 15 g bacto agar in 1 liter deionised water • Experimental set up: 24-well plates
(§4) • Inoculum: a spore/mycelium suspension (2 μl) or a piece of agar from the margin of an actively growing colony • Culture conditions: 27° C., 70% relative humidity, dark. • Evaluation: Evaluation after two days. Synergism between component (I) and one of the components (II) was determined by a commonly used and accepted method described by Kull F. C. et al. in Applied Microbiology, 9, 538-541 (1961) using the Synergy Index, which is calculated as follows for two compounds A and B: […]
(§5) wherein: • QA is the concentration of compound A in ppm, acting alone, which produced an end point (e.g. MIC), • Qa is the concentration of compound A in ppm, in the mixture, which produced an end point (e.g. MIC), • QB is the concentration of compound B in ppm, acting alone, which produced an end point (e.g. MIC), • Qb is the concentration of compound B in ppm, in the mixture, which produced an end point (e.g. MIC). When the Synergy Index is greater than 1.0, antagonism is indicated.

[4] = test system: Colletotrichum musae; assay: as above; settings: PDA, 27° C., evaluation after two days, ppm total active ingredient; for MIC: 48 h, read-out: MIC-values (minimum inhibitory concentration) in ppm
Text: as §2, §3, §4, §5

[5] = test system: Geotrichum candidum; assay: as above; settings: 48 h, PDA, 27° C., evaluation after two days, ppm total active ingredient, read-out: MIC-values (minimum inhibitory concentration) in ppm
Text: as §2, §3, §4, §5

[6] = test system: Gloeosporium album; assay: as above; settings: PDA, 27° C., evaluation after two days, ppm total active ingredient; for MIC: Phlyctema vagabunda, 48 h, read-out: MIC-values (minimum inhibitory concentration) in ppm
Text: as §2, §3, §4, §5

[7] = Table 7, Gca, conc 60 μM (tetraconazole 6 μM), combinations 60 + 60, (I) + (II-i) 60 + 6
[8] = Table 7, Gca, conc 70 μM (tetraconazole 7 μM), combinations 70 + 70, (I) + (II-i) 70 + 7
[9] = Table 5, Gca, conc 20 ppm each (combinations 20 + 20)
[10] = Table 5, Gca, conc 25 ppm each (combinations 25/25)

Compound	M = measured activity [1, 7]	X = mean fungal growth [1, 7] [mm]	M = measured activity [1, 8]	X = mean fungal growth [1, 8] [mm]	MIC [3] [µg/mL]	MIC [4] [µg/mL]	MIC [6] [µg/mL]	also measured
CSC(=O)c1cccc2nnsc12 [acibenzolar-S-me (II-e), benzo[1,2,3]-thiadiazole-7-carbothioic acid S-methyl ester]	7	14	3	15				
CCC1(C(=O)NC(C)c2ccc(Cl)cc2)C(C)C1(Cl)Cl (stereo not drawn) [carpropamid (II-f), 2,2-dichloro-N-[1-(4-chlorophenyl)ethyl]-1-ethyl-3-methyl-cyclopropanecarboxamide]								M = measured activity [2]: 0; X = mean fungal growth [2]: 15 mm
CC(C1CC1)C(O)(Cn1cncn1)c1ccc(Cl)cc1 (stereo not drawn) [cyproconazole, α-(4-chloro-phenyl)-α-(1-cyclopropyl-ethyl)-1H-1,2,4-triazole-1-ethanol]					11.9	66.7	2.81	MIC [5]: 6.67 µg/mL
C=CCOC(Cn1ccnc1)c1ccc(Cl)cc1Cl (stereo not drawn) [imazalil]	7	14	68	5	50	8.9	1.58	MIC [5]: 66.7 µg/mL; M = measured activity [2]: 88; X = mean fungal growth [2]: 2 mm; M = measured activity [1, 9]: 38; X = mean fungal growth [1, 9]: 9 mm; M = measured activity [1, 10]: 50; X = mean fungal growth [1, 10]: 7 mm
COC(=O)N(OC)c1ccccc1COc1ccn(-c2ccc(Cl)cc2)n1 [pyraclostrobin, methyl N-(2-[1-(4-chlorophenyl)-1H-pyrazol-3-yloxymethyl]phenyl](N-methoxy)carbamate]					66.7	66.7	66.7	
FC(F)C(F)(F)OCC(Cn1cncn1)c1ccc(Cl)cc1Cl (stereo not drawn) [tetraconazole (II-i), 1-[2-(2,4-dichloro-phenyl)-3-(1,1,2,2-tetrafluoroethoxy)propyl]-1H-1,2,4-triazole]	15	13	3	15				M = measured activity [1, 9]: 36; X = mean fungal growth [1, 9]: 9 mm; M = measured activity [1, 10]: 45; X = mean fungal growth [1, 10]: 8 mm
CCC(C)(NC(=O)c1cc(Cl)c(C)c(Cl)c1)C(=O)CCl (stereo not drawn) [zoxamide (II-j), 3,5-dichloro-N-(3-chloro-1-ethyl-1-methyl-2-oxopropyl)-4-methyl-benzamide]	0	15	2	15				
(E)-4-chloro-ααα-trifluoro-N-(1-imidazol-1-yl-2-propoxyethylidene)-o-toluidine [triflumizole]								MIC-values (minimum inhibitory concentration) in ppm [3]: 37.50 ppm; MIC-values (minimum inhibitory concentration) in ppm [4]: 28.13 ppm; MIC-values (minimum inhibitory concentration) in ppm [6]: 6.67 ppm
